{"source": "patent US11952593B2", "about": "“Detection and treatment of daughter number variations in cancer cells” (PharmacoGenetics Limited, priority 2020, dated 2024)", "key": {"[1]": {"test_system": "non-cancerous RPE1 retina epithelial cells", "experiment": "Time-lapse microscopy count of multi-daughter divisions (DNV frequency), RPE1", "type": "cell-based", "details": "RPE1, 24 hours; wogonin 50 μM, 5-FU 20 μM", "protocol": "To investigate DNVs, the human HepG2 hepatocellular carcinoma, HeLa cervical adenocarcinoma, and A549 lung adenocarcinoma cell lines, as well as the non-cancerous RPE1 line of hTRET-immortalized retina epithelial cells, were obtained from the American Type Culture Collection (ATCC, Manassas, Va., USA) and cultivated in Dulbecco's Modified Eagle Medium (DMEM) supplemented with 10% fetal bovine serum (Gemini Bio-Products, Sacramento. Calif.) under a humidified atmosphere of 5% C02 at 37° C. After 24 hours, the old medium was replaced by acidic DMEM growth medium buffered by 15 mM 2-(N-morpholino)-ethanesulfonic acid.HCl (MES) at pH 6.4, neutral DMEM growth medium buffered by 15 mM 3-(N-morpholino)propanesulfonic acid.HCl (MOPS) at pH 7.4, alkaline growth medium buffered by 15 mM tris(hydroxymethyl)aminomethane.HCl (Tris) at pH 8.4, or neutral DMEM growth medium containing wogonin (50 μM) or 5-FU (20 μM). Using phase contrast microscopy, time-lapse photographs were recorded at different positions of the wells at 15-minute intervals for 24 hours using the Nikon ECLIPSE Ti Live Cell Imaging Observatory, enabling the count of P1 through P8 patterns at the end of Stage 2 of the DNV process (FIG. 1). All the images were photographed at 100× magnification. Altemately, using fluorescence microscopy, the cells were seeded into 12 well plates at 1×10^3 per well and stained with Hoechst 33342 ([…], Thermofisher) for 30 minutes in an incubator at 37° C. After 30 minutes, culture medium was replaced by various treatment media and placed under the Nikon ECLIPSE Ti Live Cell Imaging Observatory for 24 hours. For the HeLa, HepG2 and A549 cells, the various treatments were also extended to 5 days. Because the RPE1 cells yielded no DNVs after 24 hours of drug treatment, its treatment periods were not extended beyond 24 hours. All the cells were manually traced and quantified using the ImageJ software. DNV frequencies were estimated by dividing the total number of multi-daughter ([…]) divisions by the total number of cell divisions. Fluorescence staining and time-lapse microscopy were employed to differentiate between the bi-, tri-, tetra- and penta-daughter cell divisions, and to estimate the percentages of the P1 through P8 patterns in the final daughter cells generated by each of the DNV events. GraphPad Prism 5.0 software was employed for statistical analysis, and the results were presented as the mean. Significance was determined using the Student t-test (two-tailed, unpaired/unequal variances)."}, "HepG2 cells": {"test_system": "HepG2 cells", "experiment": "Daughter-cell subgroups P1 through P8 in mitoses with DNV, HepG2", "type": "cell-based, human", "details": "HepG2, 24 hours, wogonin 50 μM, 5-FU 20 μM", "text": "(§1) “Daughter Number Variation” is a process that occurs during mitosis, where more than two daughter cells are produced per mitotic division. It is a two-stage process, wherein cell divisions of mono-nucleate, bi-nucleate, tri-nucleate and tetra-nucleate mother cells at Stage 1 produce subgroups of single mono-nucleate cells (herein referred to as P1), and subgroups containing one bi-nucleate cell and two mono-nucleate cells (herein referred to as P2). Stage 1 is followed by Stage 2, during which time some of the daughter cells from Stage 1 fuse to produce multi-nucleate cell subgroups, where the different subgroups differ with respect to the number of constituent cells and their nucleate status (herein referred to as P3 through P8). All the subgroups from a single DNV mitosis stay close to one another to form a distinct cluster when the cell culture is not overly dense with cells.\n(§2) P1 subgroup cells are daughter mono-nucleate cells resulting from mitoses with DNV that have not undergone any post-mitotic cell fusion. P2 subgroup daughter cells are clusters of one bi-nucleate cell and two mono-nucleate cells, which also have not undergone any post-mitotic cell fusion during DNV, whereas each of the multi-nucleated subgroups contains at least one cell that is generated from post-mitotic fusions between the Stage 1 cells. P3 through P8 are daughter cell subgroups, which result from cell fusions during DNV, and wherein each subgroup includes at least one multinucleate cell.\n(§3) By way of example and not of limitation, there is at least one multinucleate cell with two nuclei in P3 and P5, one multinucleate cell with three nuclei in P4 and P6, one multinucleate cell with four nuclei in P7, and one multinucleate cell with five nuclei in P8, sharing the same cytoplasm. More specifically, P3 cell subgroups are clusters of one multinucleate cell with two nuclei and one mononucleate cell, P4 cell subgroups are one multinucleate cell with three nuclei, P5 cell subgroups are clusters of either two multinucleate cells with two nuclei or one multinucleate cell with two nuclei and one binucleate cell, P6 cell subgroups are clusters of one multinucleate cell with three nuclei and one mononucleate cell, P7 cell subgroups are one multinucleate cell with four nuclei, and P8 cell subgroups are one multinucleate cell with five nuclei. P1 through P8 cell subgroups are depicted in detail in FIG. 2.\n(§4) The counts of P1 and P2 subgroups of cancer cells are then used to obtain their proportions based on the total number of cell subgroups P1 through P8 that resulted from mitotic DNVs during the predetermined period of time. The proportions are typically expressed as percentages. The proportion of P1 subgroup of cells is calculated as (number of P1 subgroups)+(total number of daughter cell subgroups)×100%, and the proportion of (P1 and P2) subgroup is calculated as (number of P1 subgroups+number of P2 subgroups)+(total number of daughter cell subgroups)×100%. This can also be expressed as (number of P1 subgroups)+(total number of P1 through P8 subgroups)×100%, or (number of P1 subgroups+number of P2 subgroups)+(total number of P1 through P8 subgroups)×100%, respectively.\n(§5) To investigate DNVs, the human HepG2 hepatocellular carcinoma, HeLa cervical adenocarcinoma, and A549 lung adenocarcinoma cell lines, as well as the non-cancerous RPE1 line of hTRET-immortalized retina epithelial cells, were obtained from the American Type Culture Collection (ATCC, Manassas, Va., USA) and cultivated in Dulbecco's Modified Eagle Medium (DMEM) supplemented with 10% fetal bovine serum (Gemini Bio-Products, Sacramento. Calif.) under a humidified atmosphere of 5% C02 at 37° C. […]"}, "HeLa cells": {"test_system": "HeLa cells", "experiment": "Daughter-cell subgroups P1 through P8 in mitoses with DNV, HeLa", "type": "cell-based, human", "details": "24 hours, wogonin 50 μM, 5-FU 20 μM", "text": "as §1, §2, §3, §4, §5"}}, "data": [{"smiles": "O=c1[nH]cc(F)c(=O)[nH]1", "note": "[5-FU, 5-flurouracil]", "values": [{"measurement": "Bi-daughter divisions, % of total divisions", "setting": "[1]", "value": 100, "unit": "%"}, {"measurement": "Bi-daughter divisions, number", "setting": "[1]", "value": 15}, {"measurement": "Sum of Multi-daughter Divisions, number", "setting": "[1]", "value": 0}, {"measurement": "Total number of observed divisions", "setting": "[1]", "value": 15}, {"measurement": "Tri-daughter divisions, number", "setting": "[1]", "value": 0}, {"measurement": "Mitoses with DNV, number", "setting": "HepG2 cells", "value": 17}, {"measurement": "P1 + P2 subgroups, number", "setting": "HepG2 cells", "value": 6}, {"measurement": "P1 subgroups, number", "setting": "HepG2 cells", "value": 3}, {"measurement": "P2 subgroups, % of all P1 through P8 subgroups", "setting": "HepG2 cells", "value": "(17.6) %"}, {"measurement": "P2 subgroups, number", "setting": "HepG2 cells", "value": 3}, {"measurement": "P3 subgroups, % of all P1 through P8 subgroups", "setting": "HepG2 cells", "value": "(35.2) %"}, {"measurement": "P3 subgroups, number", "setting": "HepG2 cells", "value": 6}, {"measurement": "P4 subgroups, number", "setting": "HepG2 cells", "value": 0}, {"measurement": "P5 subgroups, % of all P1 through P8 subgroups", "setting": "HepG2 cells", "value": "(11.7) %"}, {"measurement": "P5 subgroups, number", "setting": "HepG2 cells", "value": 2}, {"measurement": "P6 subgroups, % of all P1 through P8 subgroups", "setting": "HepG2 cells", "value": "(17.6) %"}, {"measurement": "P6 subgroups, number", "setting": "HepG2 cells", "value": 3}, {"measurement": "P7 subgroups, number", "setting": "HepG2 cells", "value": 0}, {"measurement": "P8 subgroups, number", "setting": "HepG2 cells", "value": 0}, {"measurement": "Mitoses with DNV, number", "setting": "HeLa cells", "value": 13}, {"measurement": "P1 + P2 subgroups, number", "setting": "HeLa cells", "value": 12}, {"measurement": "P1 subgroups, number", "setting": "HeLa cells", "value": 10}, {"measurement": "P2 subgroups, % of all P1 through P8 subgroups", "setting": "HeLa cells", "value": "(15.3) %"}, {"measurement": "P2 subgroups, number", "setting": "HeLa cells", "value": 2}, {"measurement": "P3 subgroups, % of all P1 through P8 subgroups", "setting": "HeLa cells", "value": "(7.6) %"}, {"measurement": "P3 subgroups, number", "setting": "HeLa cells", "value": 1}, {"measurement": "P4 subgroups, number", "setting": "HeLa cells", "value": 0}, {"measurement": "P5 subgroups, number", "setting": "HeLa cells", "value": 0}, {"measurement": "P6 subgroups, number", "setting": "HeLa cells", "value": 0}, {"measurement": "P7 subgroups, number", "setting": "HeLa cells", "value": 0}, {"measurement": "P8 subgroups, number", "setting": "HeLa cells", "value": 0}]}, {"smiles": "COc1c(O)cc(O)c2c(=O)cc(-c3ccccc3)oc12", "note": "[Wogonin, wogonin]", "values": [{"measurement": "Bi-daughter divisions, % of total divisions", "setting": "[1]", "value": 100, "unit": "%"}, {"measurement": "Bi-daughter divisions, number", "setting": "[1]", "value": 106}, {"measurement": "Sum of Multi-daughter Divisions, number", "setting": "[1]", "value": 0}, {"measurement": "Total number of observed divisions", "setting": "[1]", "value": 106}, {"measurement": "Tri-daughter divisions, number", "setting": "[1]", "value": 0}, {"measurement": "Mitoses with DNV, number", "setting": "HepG2 cells", "value": 63}, {"measurement": "P1 + P2 subgroups, % of all P1 through P8 subgroups", "setting": "HepG2 cells", "value": "(60.3) %"}, {"measurement": "P1 + P2 subgroups, number", "setting": "HepG2 cells", "value": 38}, {"measurement": "P1 subgroups, % of all P1 through P8 subgroups", "setting": "HepG2 cells", "value": "(42.8) %"}, {"measurement": "P1 subgroups, number", "setting": "HepG2 cells", "value": 27}, {"measurement": "P2 subgroups, % of all P1 through P8 subgroups", "setting": "HepG2 cells", "value": "(17.4) %"}, {"measurement": "P2 subgroups, number", "setting": "HepG2 cells", "value": 11}, {"measurement": "P3 subgroups, % of all P1 through P8 subgroups", "setting": "HepG2 cells", "value": "(12.7) %"}, {"measurement": "P3 subgroups, number", "setting": "HepG2 cells", "value": 8}, {"measurement": "P4 subgroups, % of all P1 through P8 subgroups", "setting": "HepG2 cells", "value": "(14.2) %"}, {"measurement": "P4 subgroups, number", "setting": "HepG2 cells", "value": 9}, {"measurement": "P5 subgroups, % of all P1 through P8 subgroups", "setting": "HepG2 cells", "value": "(4.7) %"}, {"measurement": "P5 subgroups, number", "setting": "HepG2 cells", "value": 3}, {"measurement": "P6 subgroups, % of all P1 through P8 subgroups", "setting": "HepG2 cells", "value": "(4.7) %"}, {"measurement": "P6 subgroups, number", "setting": "HepG2 cells", "value": 3}, {"measurement": "P7 subgroups, % of all P1 through P8 subgroups", "setting": "HepG2 cells", "value": "(3.1) %"}, {"measurement": "P7 subgroups, number", "setting": "HepG2 cells", "value": 2}, {"measurement": "P8 subgroups, number", "setting": "HepG2 cells", "value": 0}, {"measurement": "P1 + P2 subgroups, % of all P1 through P8 subgroups", "setting": "HepG2 cells; listed as wogonin", "value": 60.3, "unit": "%"}, {"measurement": "P1 subgroups, % of all P1 through P8 subgroups", "setting": "HepG2 cells; listed as wogonin", "value": 42.8, "unit": "%"}, {"measurement": "Mitoses with DNV, number", "setting": "HeLa cells", "value": 31}, {"measurement": "P1 + P2 subgroups, % of all P1 through P8 subgroups", "setting": "HeLa cells", "value": "(61.2) %"}, {"measurement": "P1 + P2 subgroups, number", "setting": "HeLa cells", "value": 19}, {"measurement": "P1 subgroups, % of all P1 through P8 subgroups", "setting": "HeLa cells", "value": "(51.6) %"}, {"measurement": "P1 subgroups, number", "setting": "HeLa cells", "value": 16}, {"measurement": "P2 subgroups, % of all P1 through P8 subgroups", "setting": "HeLa cells", "value": "(9.6) %"}, {"measurement": "P2 subgroups, number", "setting": "HeLa cells", "value": 3}, {"measurement": "P3 subgroups, % of all P1 through P8 subgroups", "setting": "HeLa cells", "value": "(32.2) %"}, {"measurement": "P3 subgroups, number", "setting": "HeLa cells", "value": 10}, {"measurement": "P4 subgroups, % of all P1 through P8 subgroups", "setting": "HeLa cells", "value": "(6.4) %"}, {"measurement": "P4 subgroups, number", "setting": "HeLa cells", "value": 2}, {"measurement": "P5 subgroups, number", "setting": "HeLa cells", "value": 0}, {"measurement": "P6 subgroups, number", "setting": "HeLa cells", "value": 0}, {"measurement": "P7 subgroups, number", "setting": "HeLa cells", "value": 0}, {"measurement": "P8 subgroups, number", "setting": "HeLa cells", "value": 0}, {"measurement": "P1 + P2 subgroups, % of all P1 through P8 subgroups", "setting": "HeLa cells; listed as wogonin", "value": 61.2, "unit": "%"}, {"measurement": "P1 subgroups, % of all P1 through P8 subgroups", "setting": "HeLa cells; listed as wogonin", "value": 51.6, "unit": "%"}]}]}
